Measurements taken from the supplement of paper PMC10307832.

Tests used:
Experiment in all cases: relative viability (nuclei count vs DMSO), 5 days (fraction); higher = more cells survive
GSK-J4 + Bortezomib = compound: CCOC(=O)CCNc1cc(N2CCc3ccccc3CC2)nc(-c2ccccn2)n1 [GSK-J4] + CC(C)C[C@H](NC(=O)[C@H](Cc1ccccc1)NC(=O)c1cnccn1)B(O)O [Bortezomib] (partner 0.002 µM)
Outline: (§1)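 The day after seeding in 1536-well plates, lung cancer cell lines were treated by pin tool with a single drug, or with a fixed anchor-drug dose together with five library-drug doses (not always all listed) in √10 steps. After 5 days, a combined fix-and-stain solution (final 0.05% Triton X-100, 1% formaldehyde, 1 ug/ml Hoechst) was added. Nuclei counted on 4× images gave relative viability as treated counts over vehicle counts, reported as the median of duplicate plates.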

GSK-J4 + Dasatinib = compound: CCOC(=O)CCNc1cc(N2CCc3ccccc3CC2)nc(-c2ccccn2)n1 [GSK-J4] + Cc1nc(Nc2ncc(C(=O)Nc3c(C)cccc3Cl)s2)cc(N2CCN(CCO)CC2)n1 [Dasatinib] (partner 0.075 µM)
Outline: as §1

AZ3146 + Trametinib = compound: CN1CCC(CC1)OC2=CC(=C(C=C2)NC3=NC=C4C(=N3)N(C(=O)N4C)C5CCCC5)OC [AZ3146] + CC(=O)Nc1cccc(-n2c(=O)n(C3CC3)c(=O)c3c(Nc4ccc(I)cc4F)n(C)c(=O)c(C)c32)c1 [Trametinib] (partner 0.02 µM)
Outline: as §1

AZ3146 + Foretinib = compound: CN1CCC(CC1)OC2=CC(=C(C=C2)NC3=NC=C4C(=N3)N(C(=O)N4C)C5CCCC5)OC [AZ3146] + COc1cc2c(Oc3ccc(NC(=O)C4(C(=O)Nc5ccc(F)cc5)CC4)cc3F)ccnc2cc1OCCCN1CCOCC1 [Foretinib] (partner 0.25 µM)
Outline: as §1

Q: Which relative viability (GSK-J4 + Bortezomib; first compound 0.5 µM) does the source give for NCI-H596 here?
A: 0.999

Q: And the relative viability (GSK-J4 + Bortezomib; first compound 1.581 µM)?
A: 0.945

Q: And the relative viability (GSK-J4 + Bortezomib; first compound 5 µM)?
A: 0.99

Q: And the relative viability (GSK-J4 + Bortezomib; first compound 15.81 µM)?
A: 0.976

Q: And the relative viability (GSK-J4 + Bortezomib; first compound 50 µM)?
A: 1

Q: What about the relative viability (GSK-J4 + Dasatinib; first compound 0.5 µM) of the same cell line?
A: 0.562

Q: What about the relative viability (GSK-J4 + Dasatinib; first compound 1.581 µM) of the same cell line?
A: 0.611

Q: And the relative viability (GSK-J4 + Dasatinib; first compound 5 µM)?
A: 0.645

Q: And the relative viability (GSK-J4 + Dasatinib; first compound 15.81 µM)?
A: 0.497

Q: What about the relative viability (GSK-J4 + Dasatinib; first compound 50 µM) of the same cell line?
A: 0.599

Q: And the relative viability (AZ3146 + Trametinib; first compound 0.08 µM)?
A: 0.806

Q: And the relative viability (AZ3146 + Trametinib; first compound 0.253 µM)?
A: 0.643

Q: What about the relative viability (AZ3146 + Trametinib; first compound 0.8 µM) of the same cell line?
A: 0.766

Q: What about the relative viability (AZ3146 + Trametinib; first compound 2.53 µM) of the same cell line?
A: 0.89

Q: And the relative viability (AZ3146 + Trametinib; first compound 8 µM)?
A: 0.919

Q: What about the relative viability (AZ3146 + Foretinib; first compound 0.08 µM) of the same cell line?
A: 0.793

Q: And the relative viability (AZ3146 + Foretinib; first compound 0.253 µM)?
A: 0.714

Q: What about the relative viability (AZ3146 + Foretinib; first compound 0.8 µM) of the same cell line?
A: 0.999

Q: What about the relative viability (AZ3146 + Foretinib; first compound 2.53 µM) of the same cell line?
A: 0.691

Q: What about the relative viability (AZ3146 + Foretinib; first compound 8 µM) of the same cell line?
A: 0.881

Q: How did the relative viability (GSK-J4 + Bortezomib; first compound 0.5 µM) turn out when NCI-H838 was run?
A: 0.978

Q: What about the relative viability (GSK-J4 + Bortezomib; first compound 1.581 µM) of the same cell line?
A: 0.483

Q: What about the relative viability (GSK-J4 + Bortezomib; first compound 15.81 µM) of the same cell line?
A: 0.769

Q: What about the relative viability (GSK-J4 + Bortezomib; first compound 50 µM) of the same cell line?
A: 0.792

Q: What about the relative viability (GSK-J4 + Dasatinib; first compound 0.5 µM) of the same cell line?
A: 0.325

Q: And the relative viability (GSK-J4 + Dasatinib; first compound 1.581 µM)?
A: 0.24

Q: What about the relative viability (GSK-J4 + Dasatinib; first compound 5 µM) of the same cell line?
A: 0.23

Q: And the relative viability (GSK-J4 + Dasatinib; first compound 15.81 µM)?
A: 0.266

Q: And the relative viability (GSK-J4 + Dasatinib; first compound 50 µM)?
A: 0.275

Q: What about the relative viability (AZ3146 + Trametinib; first compound 0.08 µM) of the same cell line?
A: 0.553

Q: And the relative viability (AZ3146 + Trametinib; first compound 0.253 µM)?
A: 0.467

Q: What about the relative viability (AZ3146 + Trametinib; first compound 0.8 µM) of the same cell line?
A: 0.462

Q: What about the relative viability (AZ3146 + Trametinib; first compound 2.53 µM) of the same cell line?
A: 0.481

Q: And the relative viability (AZ3146 + Trametinib; first compound 8 µM)?
A: 0.227

Q: And the relative viability (AZ3146 + Foretinib; first compound 0.08 µM)?
A: 1.06

Q: What about the relative viability (AZ3146 + Foretinib; first compound 0.253 µM) of the same cell line?
A: 1.09

Q: And the relative viability (AZ3146 + Foretinib; first compound 0.8 µM)?
A: 0.954

Q: And the relative viability (AZ3146 + Foretinib; first compound 2.53 µM)?
A: 1.03

Q: What about the relative viability (AZ3146 + Foretinib; first compound 8 µM) of the same cell line?
A: 0.788

Q: What does the source list for HCC-366?
A: relative viability (GSK-J4 + Bortezomib; first compound 0.5 µM): 1; relative viability (GSK-J4 + Bortezomib; first compound 1.581 µM): 1.02; relative viability (GSK-J4 + Bortezomib; first compound 15.81 µM): 1.01; relative viability (GSK-J4 + Bortezomib; first compound 50 µM): 0.96; relative viability (GSK-J4 + Dasatinib; first compound 0.5 µM): 0.597; relative viability (GSK-J4 + Dasatinib; first compound 1.581 µM): 0.537; relative viability (GSK-J4 + Dasatinib; first compound 15.81 µM): 0.415; relative viability (GSK-J4 + Dasatinib; first compound 50 µM): 0.501; relative viability (AZ3146 + Trametinib; first compound 0.08 µM): 0.31; relative viability (AZ3146 + Trametinib; first compound 0.253 µM): 0.412; relative viability (AZ3146 + Trametinib; first compound 0.8 µM): 0.311; relative viability (AZ3146 + Trametinib; first compound 2.53 µM): 0.341; relative viability (AZ3146 + Trametinib; first compound 8 µM): 0.316; relative viability (AZ3146 + Foretinib; first compound 0.08 µM): 0.791; relative viability (AZ3146 + Foretinib; first compound 0.253 µM): 0.924; relative viability (AZ3146 + Foretinib; first compound 0.8 µM): 0.908; relative viability (AZ3146 + Foretinib; first compound 2.53 µM): 0.974; relative viability (AZ3146 + Foretinib; first compound 8 µM): 0.178

Q: What does the source list for NCI-H1651?
A: relative viability (GSK-J4 + Bortezomib; first compound 0.5 µM): 0.893; relative viability (GSK-J4 + Bortezomib; first compound 1.581 µM): 0.842; relative viability (GSK-J4 + Bortezomib; first compound 5 µM): 0.893; relative viability (GSK-J4 + Bortezomib; first compound 15.81 µM): 0.901; relative viability (GSK-J4 + Bortezomib; first compound 50 µM): 0.884; relative viability (GSK-J4 + Dasatinib; first compound 0.5 µM): 0.537; relative viability (GSK-J4 + Dasatinib; first compound 1.581 µM): 0.306; relative viability (GSK-J4 + Dasatinib; first compound 5 µM): 0.367; relative viability (GSK-J4 + Dasatinib; first compound 15.81 µM): 0.443; relative viability (GSK-J4 + Dasatinib; first compound 50 µM): 0.477; relative viability (AZ3146 + Trametinib; first compound 0.08 µM): 0.736; relative viability (AZ3146 + Trametinib; first compound 0.253 µM): 0.779; relative viability (AZ3146 + Trametinib; first compound 0.8 µM): 0.833; relative viability (AZ3146 + Trametinib; first compound 2.53 µM): 0.789; relative viability (AZ3146 + Trametinib; first compound 8 µM): 0.797; relative viability (AZ3146 + Foretinib; first compound 0.08 µM): 0.729; relative viability (AZ3146 + Foretinib; first compound 0.253 µM): 0.726; relative viability (AZ3146 + Foretinib; first compound 0.8 µM): 0.809; relative viability (AZ3146 + Foretinib; first compound 2.53 µM): 0.849; relative viability (AZ3146 + Foretinib; first compound 8 µM): 0.836

Q: What does the source list for LOU-NH91?
A: relative viability (GSK-J4 + Bortezomib; first compound 0.5 µM): 0.525; relative viability (GSK-J4 + Bortezomib; first compound 1.581 µM): 0.497; relative viability (GSK-J4 + Bortezomib; first compound 5 µM): 0.426; relative viability (GSK-J4 + Bortezomib; first compound 15.81 µM): 0.467; relative viability (GSK-J4 + Bortezomib; first compound 50 µM): 0.621; relative viability (GSK-J4 + Dasatinib; first compound 0.5 µM): 0.65; relative viability (GSK-J4 + Dasatinib; first compound 1.581 µM): 0.612; relative viability (GSK-J4 + Dasatinib; first compound 5 µM): 0.432; relative viability (GSK-J4 + Dasatinib; first compound 15.81 µM): 0.506; relative viability (GSK-J4 + Dasatinib; first compound 50 µM): 0.631; relative viability (AZ3146 + Trametinib; first compound 0.08 µM): 0.838; relative viability (AZ3146 + Trametinib; first compound 0.253 µM): 0.76; relative viability (AZ3146 + Trametinib; first compound 0.8 µM): 0.867; relative viability (AZ3146 + Trametinib; first compound 2.53 µM): 0.794; relative viability (AZ3146 + Trametinib; first compound 8 µM): 0.781; relative viability (AZ3146 + Foretinib; first compound 0.08 µM): 0.967; relative viability (AZ3146 + Foretinib; first compound 0.253 µM): 0.902; relative viability (AZ3146 + Foretinib; first compound 0.8 µM): 1.01; relative viability (AZ3146 + Foretinib; first compound 2.53 µM): 0.931; relative viability (AZ3146 + Foretinib; first compound 8 µM): 0.948

Q: Which relative viability (GSK-J4 + Bortezomib; first compound 0.5 µM) does the source give for NCI-H520 here?
A: 0.553

Q: And the relative viability (GSK-J4 + Bortezomib; first compound 1.581 µM)?
A: 0.316

Q: And the relative viability (GSK-J4 + Bortezomib; first compound 5 µM)?
A: 0.299

Q: What about the relative viability (GSK-J4 + Bortezomib; first compound 15.81 µM) of the same cell line?
A: 0.509

Q: And the relative viability (GSK-J4 + Bortezomib; first compound 50 µM)?
A: 0.556

Q: What about the relative viability (GSK-J4 + Dasatinib; first compound 0.5 µM) of the same cell line?
A: 0.217

Q: What about the relative viability (GSK-J4 + Dasatinib; first compound 1.581 µM) of the same cell line?
A: 0.191

Q: What about the relative viability (GSK-J4 + Dasatinib; first compound 5 µM) of the same cell line?
A: 0.154

Q: And the relative viability (GSK-J4 + Dasatinib; first compound 15.81 µM)?
A: 0.125

Q: And the relative viability (GSK-J4 + Dasatinib; first compound 50 µM)?
A: 0.184

Q: And the relative viability (AZ3146 + Trametinib; first compound 0.08 µM)?
A: 0.643

Q: What about the relative viability (AZ3146 + Trametinib; first compound 0.253 µM) of the same cell line?
A: 0.691

Q: And the relative viability (AZ3146 + Trametinib; first compound 0.8 µM)?
A: 0.54

Q: What about the relative viability (AZ3146 + Trametinib; first compound 2.53 µM) of the same cell line?
A: 0.677

Q: And the relative viability (AZ3146 + Trametinib; first compound 8 µM)?
A: 0.49

Q: What about the relative viability (AZ3146 + Foretinib; first compound 0.08 µM) of the same cell line?
A: 0.566

Q: What about the relative viability (AZ3146 + Foretinib; first compound 0.253 µM) of the same cell line?
A: 0.867

Q: And the relative viability (AZ3146 + Foretinib; first compound 0.8 µM)?
A: 0.58

Q: What about the relative viability (AZ3146 + Foretinib; first compound 2.53 µM) of the same cell line?
A: 0.91

Q: And the relative viability (AZ3146 + Foretinib; first compound 8 µM)?
A: 0.83

Q: Which results are given for H3255?
A: relative viability (GSK-J4 + Bortezomib; first compound 0.5 µM): 0.858; relative viability (GSK-J4 + Bortezomib; first compound 1.581 µM): 0.632; relative viability (GSK-J4 + Bortezomib; first compound 5 µM): 0.655; relative viability (GSK-J4 + Bortezomib; first compound 15.81 µM): 0.579; relative viability (GSK-J4 + Bortezomib; first compound 50 µM): 0.603; relative viability (GSK-J4 + Dasatinib; first compound 0.5 µM): 0.361; relative viability (GSK-J4 + Dasatinib; first compound 1.581 µM): 0.364; relative viability (GSK-J4 + Dasatinib; first compound 5 µM): 0.416; relative viability (GSK-J4 + Dasatinib; first compound 15.81 µM): 0.369; relative viability (GSK-J4 + Dasatinib; first compound 50 µM): 0.386; relative viability (AZ3146 + Trametinib; first compound 0.08 µM): 0.649; relative viability (AZ3146 + Trametinib; first compound 0.253 µM): 0.57; relative viability (AZ3146 + Trametinib; first compound 0.8 µM): 0.555; relative viability (AZ3146 + Trametinib; first compound 2.53 µM): 0.614; relative viability (AZ3146 + Trametinib; first compound 8 µM): 0.544; relative viability (AZ3146 + Foretinib; first compound 0.08 µM): 0.773; relative viability (AZ3146 + Foretinib; first compound 0.253 µM): 0.764; relative viability (AZ3146 + Foretinib; first compound 0.8 µM): 0.927; relative viability (AZ3146 + Foretinib; first compound 2.53 µM): 1.04; relative viability (AZ3146 + Foretinib; first compound 8 µM): 0.922
